Experimental data as given in patent US20230233533A1, “COMPOSITIONS, METHODS OF TREATING AND PREVENTING FUNGAL INFECTIONS, AND METHODS OF INHIBITING PRP8 INTEIN EXPRESSION” (Health Research, Inc., priority 2020, published 2023).
In brackets after ≈: the same amount, converted by molar mass. Several values for one entry are separate records, joined by “and”; a condition that tells them apart may be missing. Identical values can stand only once. Like-named read-outs stand apart in the source and are kept apart here.

Legend:
Prp8 intein [1] = target: T1, Prp8 intein (Cryptococcus gattii, UniProt E6R027); assay: Split GFP-Prp8i intein splicing assay; type: biochemical; details: for IC50: split GFP-Prp8 intein splicing
Description: Cloning, expression and purfication—The split GFP-Prp8i was constructed using a mega-PCR mutagenesis approach. […] After digestion with Dpn I restriction enzyme, the PCR product was transformed into DH5α Escherichia coli. Clones were verified by plasmid DNA sequencing. The expression, refolding and purification of the GFP-Prp8i fusion protein were carried out as described previously.
[…] Then 100 μl 2×TCEP was added to a final concentration of 20 μM. The reactions were incubated at 25° C. overnight. […] Two readings were taken, one prior to addition of TCEP (I0) and one after incubation overnight with TCEP (If). Fluorescence/luminescence differences (ΔFluorescence or ΔLuminescence) were defined as If−I0 for each well. […] DMF control served as 100% splicing activity.
Split GFP-Prp8 and CJGFP-Prp8 intein splicing assays—Using black and clear bottom 96-well plates, the DPNB-treated, -refolded and -concentrated GFP-Prp8 or CfGFP-Prp8 fusion protein (0.5 μM) was incubated with compounds or Dimethylsulfoxide (DMSO) solvent control for 30 min at 25° C. in a 100 μl intein splicing buffer (20 mM Bis-tris propane, 0.5 M NaCl, 0.5 M arginine, 1 mM EDTA, and 0.05% CHAPS). Then 100 μl 2×TCEP was added to a final concentration of 20 μM. The reactions were incubated at 25° C. overnight. […] Two readings were taken, one prior to addition of TCEP (I0) and one after incubation overnight with TCEP (If). Fluorescence/luminescence differences (ΔFluorescence or ΔLuminescence) were defined as If−I0 for each well. […] DMSO control served as 100% splicing activity.

papain = target: T2, papain (Carica papaya, UniProt P00784); assay: Papain protease inhibition (Abz FRET substrate); type: biochemical; details: compound at 400 μM
T2 construct: purchased Sigma-Aldrich
T2 sequence (P00784 134-345): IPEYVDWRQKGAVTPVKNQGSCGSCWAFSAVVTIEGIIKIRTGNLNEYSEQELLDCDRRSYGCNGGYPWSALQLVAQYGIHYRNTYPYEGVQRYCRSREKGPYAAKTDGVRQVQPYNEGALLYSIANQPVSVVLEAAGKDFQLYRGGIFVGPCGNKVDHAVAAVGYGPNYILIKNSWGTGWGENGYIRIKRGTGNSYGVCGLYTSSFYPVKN
Description: (§1) Trypsin and papain protease inhibition—An Abz FRET substrate (Abz-RRRRSAG-nTyr) developed previously (Li et al., “Existing Drugs as Broad-Spectrum and Potent Inhibitors for Zika Virus by Targeting NS2B-NS3 Interaction,” Cell Research 27(8):1046-1064 (2017), which is hereby incorporated by reference in its entirety) was used as the substrate for inhibition of trypsin and papain proteases. In black and clear-bottom 96-well plates, 1 μg trypsin (Sigma-Aldrich) was incubated with DMF or compounds at 400 μM at 25° C. for 30 min in a 70 μl reaction buffer containing 20 mM Tris, pH 8.0, 100 mM NaCl, 5% Glycerol, and 0.05% CHAPS. For papain, 1 μg Papain (Sigma-Aldrich) was incubated with compounds at 400 μM at 25° C. for 30 min in a 70 μl reaction buffer composed of 1.1 mM EDTA, 0.067 mM β-mercaptoethanol, 5.5 mM cysteine. […]

trypsin = assay: Trypsin protease inhibition (Abz FRET substrate); type: biochemical; details: compound at 400 μM
Description: as §1

Prp8 intein [2] = target: T1, Prp8 intein; details: value from Li et al. 2019; read-out: IC50 determined using the RLuc-Prp8 assay; cited from earlier work
C. neoformans H99 strain = assay: Fungal susceptibility test, broth microdilution MIC; type: cell-based, Cryptococcus neoformans
Method in brief: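 Compound MICs were determined by broth microdilution using a compound concentration series.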

Prp8 intein [3] = target: T1, Prp8 intein; assay: Split Renilla luciferase RLuc-Prp8 intein splicing assay; type: biochemical; details: split Renilla luciferase RLuc-Prp8 intein splicing
Description: Split luciferase Prp8 intein splicing assay—The split RLuc-Prp8 fusion protein was carried out and monitored using a Veritas luminometer, as described previously.
Split luciferase RLuc-Prp8 and NnLuc-Prp8 intein splicing assays—The split RLuc-Prp8 intein splicing assay was carried out and monitored using a Veritas luminometer, as described previously. […] Microbes. Infect. […] For NnLuc-Prp8 intein splicing assay, the NnLuc-prp8 is diluted in assay buffer (50 mM Tris, 0.1% BSA, 1 mM EDTA, pH 7.4) and 50 ul is added to each well in 96 well black plates. Test molecules or the solvent was added and incubated for 30 to 60 min. A splicing inducer TCEP (50 ul, 100 μM) is added and incubated for 24 h. Luciferase substrate (Furimazine, 25 ul 1:10,000 diluted) is added and luminescence is read using a luminescence reader. IC50 is calculated using Graphpad prism.

[4] = test system: human lung carcinoma cell line A549; assay: in vitro; type: cell-based; details: 48 h, MTT
Method in brief: (§2)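 A549 cells (5×10^3 per well) were exposed to compounds at 37 °C for 48 h, and viability was read by MTT assay; N=3.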

C. neoformans = assay: Sensititre YeastOne Y09 AST drug combination assay; type: cell-based, Cryptococcus neoformans; details: 6G-318S at 0.16 ug/ml, C. neoformans H99
Description: Sensititre YeastOne Y09 AST assay—Fungal susceptibility to a combination of compounds was carried out using the Sensititre YeastOne Y09 AST assay kit (Thermofisher), according to the manufacturer's manual. Briefly, fungal C. neoformans cells in exponential growth phase were diluted to a final OD530 of 0.1. Then 20 μl diluted cells were further diluted into 10 ml YPD as a stock. […] The stock C. neoformans (100 μl, ˜200 cells) were dispensed into the compound-ready 96-well plate. The fungal cells (treated or with DMF) were incubated at 30° C. for 48 h. The cell cultures were visualized by naked eye. The MIC break points were determined according to manufacturer's instructions.

C. neoformans H99 = assay: Checkerboard assay; type: cell-based, Cryptococcus neoformans; details: for MIC: Cryptococcus neoformans, H99, 48 h
Description: Compounds were initially dissolved in DMSO and diluted in RPMI-1640-MOPS media four times the targeted final concentration and 50 μl was added per well. The second compound was similarly diluted and 50 μl was added per well, to a final volume of 100 μl/well. C. neoformans […] inoculum (100 μl) prepared from freshly grown cultures and diluted to an absorbance of 0.1 at 530 nm in water and further diluted (1:500) in RPMI-1640-MOPS was added to each well. To determine the fungicidal concentration of a compound, the wells with no visible growth were serially diluted, plated on SDA, and incubated at 30° C. for 48-72 h for the recovery of colony-forming units. Additionally, the cell density of treated and untreated wells was also estimated by reading absorbance at 630 nm using an EL808 reader (Bio-Tek). Percentage of inhibition compared to that of the no-drug-control well was calculated. […] Fractional inhibitory concentration (FIC) index value is calculated as the […]. The FIC index value is then used to categorize the interaction of the two compounds tested. […] Doern, C., “When Does 2 plus 2 Equal 5?A Review of Antimicrobial Synergy Testing,” Journal of Clinical Microbiology 52(12):4124-4128 (2014), which is hereby incorporated by reference in its entirety.

Candida albicans = assay: Fungal susceptibility test, broth microdilution MIC; type: cell-based; details: microdilution assay
Description: Fungal susceptibility test—The fungal susceptibility test was carried out with a compound concentration series as described. Li et al., “Cisplatin Protects Mice From Challenge of Cryptococcus neoformans by Targeting the Prp8 Intein,” Emerging Microbes & Infections 8(1):895-908 (2019), which is hereby incorporated by reference in its entirety. The broth microdilution method was used to determine the compound MIC values against C. neoformans. In brief, serial 2-fold dilutions of the 6G-318SS (20 to 0.03 μg/ml) were made in 100 μl RPMI-1640 medium with MOPS in 96-well U-bottom plates. The C. neoformans H99 strain (100 μl of 0.5×10^5/ml) in log phase was added to each well. […] The MIC break-point was defined as no visible fungal growth by naked eye or by determining the 90% growth inhibition using absorbance at 630 nm, compared with no inhibitor control in a 96-well plate.
C. albicans, a fungus without the Prp8 intein, was also used as a control.

in vitro = type: cell-based, human; details: human, CC50 A549
Method in brief: as §2

T1 sequence (E6R027 entry or part of it): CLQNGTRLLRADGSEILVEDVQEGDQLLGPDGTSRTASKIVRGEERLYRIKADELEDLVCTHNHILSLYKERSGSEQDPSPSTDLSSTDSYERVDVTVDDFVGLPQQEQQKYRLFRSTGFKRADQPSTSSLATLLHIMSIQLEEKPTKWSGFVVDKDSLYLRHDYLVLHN

N.N.[Cl][Pt][Cl] [cisplatin, reference compound]
fluorescence increase of the GFP-Prp8i fusion (Prp8 intein [1]; cisplatin 40 μM, GFP-Prp8i 200 nM): significantly reduced
IC50 (Prp8 intein [1]): 6.7 µM
inhibition of papain protease activity (papain): neither 6G-318S, 6G-319S, nor cisplatin significantly inhibited
inhibition of trypsin protease activity (trypsin): neither 6G-318S, 6G-319S, nor cisplatin significantly inhibited
IC50 (Prp8 intein [2]): 2.5 µM

5-((4-Chlorophenyl)thio)-N-(6-fluoropyridin-3-yl)-1,2,3-thiadiazole-4-carboxamide [JMX0580]
MIC (C. neoformans H99 strain; C. neoformans H99, microbroth dilution, read-out: MIC H99): >100 µM
IC50 (Prp8 intein [1]): 35.3 µM
IC50 (Prp8 intein [3]): 6.4 µM
CC50 [4]: 33.1 µM

Nc1nc(=O)[nH]cc1F [5-FC, 5-fluorocytosine, reference compound]
reduction of MIC of known antifungal on addition of 6G-318S (C. neoformans): 2 fold
MIC (C. neoformans H99): 8.1 µg/mL
MIC-comb (C. neoformans H99; combination 6G-318S + 5-FC, well D6): 2.025 µg/mL

C[C@@H]1[C@H](O)[C@@H](C)/C=C/C=C/C=C/C=C/C=C/C=C/C=C/[C@H](O[C@@H]2O[C@H](C)[C@@H](O)[C@H](N)[C@@H]2O)C[C@@H]2O[C@](O)(C[C@@H](O)C[C@@H](O)[C@H](O)CC[C@@H](O)C[C@@H](O)CC(=O)O[C@H]1C)C[C@H](O)[C@H]2C(=O)O [AmB, amphotericin B, reference compound]
reduction of MIC of known antifungal on addition of 6G-318S (C. neoformans): more than 4 fold
MIC-alone (C. neoformans H99; C. neoformans H99, 48 h, 90% inhibition): 0.578 µg/mL
MIC-comb (C. neoformans H99; combination 6G-318S + AmB, well F6): 0.144 µg/mL

5-((4-Chlorophenyl)sulfonyl)-N-(6-fluoropyridin-3-yl)-1,2,3-thiadiazole-4-carboxamide [JMX0581]
IC50 (Prp8 intein [1]): 6.1 µM
IC50 (Prp8 intein [3]): 11.2 µM
CC50 [4]: 92.4 µM

CCC(C)n1ncn(-c2ccc(N3CCN(c4ccc(OCC5COC(Cn6cncn6)(c6ccc(Cl)cc6Cl)O5)cc4)CC3)cc2)c1=O (stereo not shown) [IZ, itraconazole, reference compound]
reduction of MIC of known antifungal on addition of 6G-318S (C. neoformans): 2 fold
MIC (C. neoformans H99): 0.176 µg/mL
MIC-comb (C. neoformans H99; combination 6G-318S + IZ, well D6): 0.088 µg/mL

O=C(Nc1ccc(F)cc1F)c1nnsc1S(=O)(=O)c1ccc(Cl)cc1 [6G-319S, 5-((4-Chlorophenyl)sulfonyl)-N-(2,4-difluorophenyl)-1,2,3-thiadiazole-4-carboxamide]
MIC (C. neoformans H99 strain; Cryptococcus neoformans, H99STRAIN, H99 strain, 48 h, 30° C., read-out: MIC C. neoformans): 1.3 µg/mL
inhibition at 20 µM (Prp8 intein [1]; compound at 20 μM, read-out: inhibition of the GFP-Prp8i signal / Prp8 intein splicing): > 50%
IC50 (Prp8 intein [1]): 9.7 µM
inhibition of papain protease activity (papain): neither 6G-318S, 6G-319S, nor cisplatin significantly inhibited
inhibition of trypsin protease activity (trypsin): neither 6G-318S, 6G-319S, nor cisplatin significantly inhibited
MIC (Candida albicans): 20.8 µg/mL (≈ 50 µM)
CC50 at 48 h (in vitro): 44.9 µg/mL and ~108 µM

C[C@@H](c1ncncc1F)[C@](O)(Cn1cncn1)c1ccc(F)cc1F [Vor, Voriconazole, reference compound]
reduction of MIC of known antifungal on addition of 6G-318S (C. neoformans): 2 fold
MIC (C. neoformans H99): 0.044 µg/mL
MIC-comb (C. neoformans H99; combination 6G-318S + Vor, well G3): 0.087 µg/mL
